# According to patent publication US20030104507A1, “Method for detection of ATP” (priority 2001, published 2003):
# Legend:
# [1] = target: native firefly luciferase (Photinus pyralis, UniProt P08659); conditions: cited from earlier work
# [2] = tested on: LucPpe2m146; test: Stability of reagent composition with LucPpe2m146 and detergent (RT, pH 7.0); format: biochemical, Photuris pennsylvanica
# Source text: The detergents used for inhibition of endogenous ATPase activity in a sample also affect activity of luciferase. […] It is ultimately the extended stability of a reagent composition, comprising an ATPase inhibitor and a luciferase enzyme, which provides a composition useful for measuring ATP, in a sample or samples, over an extended period of time.
# In this experiment, the stability of a reagent composition comprising wild type LucPpy was compared to the stability of a reagent composition comprising LucPpe2m146 at about 23° C. (room temperature). The various reagent compositions had varying detergent concentrations.
# Two solutions were created as listed below. One contained the luciferase, luciferin, MgSO4, and buffer (reagent composition). The other solution contained media plus ATP (media solution).
# 50 μg/ml enzyme (LucPpy is Promega catalog #E170A)
# Detergent (at various concentrations, see table below)
# For each reagent composition, all ingredients except the luciferase enzyme were assembled; the enzyme was then added immediately before the first luminescence reading was taken. Immediately after addition of enzyme to each reagent composition and for various timepoints thereafter, 100 μl aliquots of the reagent composition were added to wells of a 96-well microtitre luminometer plate in triplicate. To these were added 100 μl Media Solution containing the ATP. Luminescence was then immediately read on a Dynex MLX microtitreplate luminometer, 0.5 second reads per well. The average relative light unit values as well as the reaction half lives are listed below in Table I and the percent of original luminescence remaining at each timepoint is listed in Table J below. The timepoint at the top of the column indicates the time at which the first rlu measurement for the samples in that column was read. […] Times listed in Table I are the same for Table J. The values for sulfobetaine and for CTAB were generated on different days, they are presented with the control values generated in the same experiment.
# Sequence of native firefly luciferase (P08659 whole entry): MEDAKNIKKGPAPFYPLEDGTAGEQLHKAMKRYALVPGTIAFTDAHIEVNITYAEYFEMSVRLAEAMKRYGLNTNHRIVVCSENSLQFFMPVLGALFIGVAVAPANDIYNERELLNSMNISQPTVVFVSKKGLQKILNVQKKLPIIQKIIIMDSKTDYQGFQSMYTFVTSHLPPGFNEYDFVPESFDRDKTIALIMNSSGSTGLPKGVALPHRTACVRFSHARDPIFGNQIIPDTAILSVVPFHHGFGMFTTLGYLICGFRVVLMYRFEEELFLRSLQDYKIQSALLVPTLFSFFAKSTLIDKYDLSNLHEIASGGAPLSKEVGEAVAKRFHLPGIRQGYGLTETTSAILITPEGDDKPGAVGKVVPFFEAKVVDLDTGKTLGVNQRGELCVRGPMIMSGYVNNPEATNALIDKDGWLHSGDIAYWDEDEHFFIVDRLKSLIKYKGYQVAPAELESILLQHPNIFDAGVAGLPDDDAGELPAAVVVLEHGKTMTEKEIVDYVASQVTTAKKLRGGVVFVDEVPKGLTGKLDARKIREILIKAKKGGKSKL
smiles,measurement,setting,value
"CCCCCCCCCCCCCCCC[N+](C)(C)C.[Br-] [CTAB, Cetyltrimethylammonium bromide]",effect on native firefly luciferase,[1],inactivated
same,Average Relative Light Units,"[2]; LucPpe2m146, 0.02%, 1.0 min (head r61)",11019.8 rlu
same,Percent of Luminescence Remaining,"[2]; LucPpe2m146, 0.02%, 1.0 min (times of Table I r61)",100.00%
same,Average Relative Light Units,"[2]; LucPpe2m146, 0.02%, 37 min (head r61)",2051.7 rlu
same,Percent of Luminescence Remaining,"[2]; LucPpe2m146, 0.02%, 37 min (times of Table I r61)",18.62%
same,Average Relative Light Units,"[2]; LucPpe2m146, 0.02%, 67 min (head r61)",1087.4 rlu
same,Percent of Luminescence Remaining,"[2]; LucPpe2m146, 0.02%, 67 min (times of Table I r61)",9.87%
same,Average Relative Light Units,"[2]; LucPpe2m146, 0.02%, 116 min (head r61)",6117.8 rlu
same,Percent of Luminescence Remaining,"[2]; LucPpe2m146, 0.02%, 116 min (times of Table I r61)",55.52%
same,Average Relative Light Units,"[2]; LucPpe2m146, 0.02%, 177 min (head r61)",16020.8 rlu
same,Percent of Luminescence Remaining,"[2]; LucPpe2m146, 0.02%, 177 min (times of Table I r61)",145.38%
same,Average Relative Light Units,"[2]; LucPpe2m146, 0.02%, 243 min (head r61)",16368.5 rlu
same,Percent of Luminescence Remaining,"[2]; LucPpe2m146, 0.02%, 243 min (times of Table I r61)",148.54%
same,Average Relative Light Units,"[2]; LucPpe2m146, 0.05%, 1.0 min (head r61)",11992.5 rlu
same,Percent of Luminescence Remaining,"[2]; LucPpe2m146, 0.05%, 1.0 min (times of Table I r61)",100.00%
same,Average Relative Light Units,"[2]; LucPpe2m146, 0.05%, 37 min (head r61)",301.5 rlu
same,Percent of Luminescence Remaining,"[2]; LucPpe2m146, 0.05%, 37 min (times of Table I r61)",2.51%
same,Average Relative Light Units,"[2]; LucPpe2m146, 0.05%, 67 min (head r61)",131.7 rlu
same,Percent of Luminescence Remaining,"[2]; LucPpe2m146, 0.05%, 67 min (times of Table I r61)",1.10%
same,Average Relative Light Units,"[2]; LucPpe2m146, 0.05%, 116 min (head r61)",4219.7 rlu
same,Percent of Luminescence Remaining,"[2]; LucPpe2m146, 0.05%, 116 min (times of Table I r61)",35.19%
same,Average Relative Light Units,"[2]; LucPpe2m146, 0.05%, 177 min (head r61)",16910.8 rlu
same,Percent of Luminescence Remaining,"[2]; LucPpe2m146, 0.05%, 177 min (times of Table I r61)",141.01%
same,Average Relative Light Units,"[2]; LucPpe2m146, 0.05%, 243 min (head r61)",17340.0 rlu
same,Percent of Luminescence Remaining,"[2]; LucPpe2m146, 0.05%, 243 min (times of Table I r61)",144.5%
same,Average Relative Light Units,"[2]; LucPpe2m146, 0.1%, 1.0 min (head r61)",1047.8 rlu
same,Percent of Luminescence Remaining,"[2]; LucPpe2m146, 0.1%, 1.0 min (times of Table I r61)",100.00%
same,Average Relative Light Units,"[2]; LucPpe2m146, 0.1%, 37 min (head r61)",5.3 rlu
same,Percent of Luminescence Remaining,"[2]; LucPpe2m146, 0.1%, 37 min (times of Table I r61)",0.51%
same,Average Relative Light Units,"[2]; LucPpe2m146, 0.1%, 67 min (head r61)",5.2 rlu
same,Percent of Luminescence Remaining,"[2]; LucPpe2m146, 0.1%, 67 min (times of Table I r61)",0.50%
same,Average Relative Light Units,"[2]; LucPpe2m146, 0.1%, 116 min (head r61)",6.2 rlu
same,Percent of Luminescence Remaining,"[2]; LucPpe2m146, 0.1%, 116 min (times of Table I r61)",0.59%
same,Average Relative Light Units,"[2]; LucPpe2m146, 0.1%, 177 min (head r61)",6.0 rlu
same,Percent of Luminescence Remaining,"[2]; LucPpe2m146, 0.1%, 177 min (times of Table I r61)",0.58%
same,Average Relative Light Units,"[2]; LucPpe2m146, 0.1%, 243 min (head r61)",5.7 rlu
same,Percent of Luminescence Remaining,"[2]; LucPpe2m146, 0.1%, 243 min (times of Table I r61)",0.55%
"CCCCCCCCCCCC[N+](C)(C)CCCS(=O)(=O)[O-] [Sulfobetaine 3-10, N-Dodecyl-N,N-dimethyl-3-ammonio-1-propanesulfonate]",Average Relative Light Units,"[2]; LucPpe2m146, 0.1%, 0.75 min (head r48)",16648.3 rlu
same,Percent of Luminescence Remaining,"[2]; LucPpe2m146, 0.1%, 0.75 min (times of Table I r48)",100.00%
same,Average Relative Light Units,"[2]; LucPpe2m146, 0.1%, 30 min (head r48)",17003.0 rlu
same,Percent of Luminescence Remaining,"[2]; LucPpe2m146, 0.1%, 30 min (times of Table I r48)",102.1%
same,Average Relative Light Units,"[2]; LucPpe2m146, 0.1%, 66 min (head r48)",17849.8 rlu
same,Percent of Luminescence Remaining,"[2]; LucPpe2m146, 0.1%, 66 min (times of Table I r48)",107.2%
same,Average Relative Light Units,"[2]; LucPpe2m146, 0.1%, 123 min (head r48)",16610.13 rlu
same,Percent of Luminescence Remaining,"[2]; LucPpe2m146, 0.1%, 123 min (times of Table I r48)",99.8%
same,Average Relative Light Units,"[2]; LucPpe2m146, 0.1%, 180 min (head r48)",17115.63 rlu
same,Percent of Luminescence Remaining,"[2]; LucPpe2m146, 0.1%, 180 min (times of Table I r48)",102.8%
same,Average Relative Light Units,"[2]; LucPpe2m146, 0.1%, 238 min (head r48)",18131.37 rlu
same,Percent of Luminescence Remaining,"[2]; LucPpe2m146, 0.1%, 238 min (times of Table I r48)",108.9%
same,Average Relative Light Units,"[2]; LucPpe2m146, 0.5%, 0.75 min (head r48)",13447.0 rlu
same,Percent of Luminescence Remaining,"[2]; LucPpe2m146, 0.5%, 0.75 min (times of Table I r48)",100.00%
same,Average Relative Light Units,"[2]; LucPpe2m146, 0.5%, 30 min (head r48)",13597.97 rlu
same,Percent of Luminescence Remaining,"[2]; LucPpe2m146, 0.5%, 30 min (times of Table I r48)",101.1%
same,Average Relative Light Units,"[2]; LucPpe2m146, 0.5%, 66 min (head r48)",14186.93 rlu
same,Percent of Luminescence Remaining,"[2]; LucPpe2m146, 0.5%, 66 min (times of Table I r48)",105.5%
same,Average Relative Light Units,"[2]; LucPpe2m146, 0.5%, 123 min (head r48)",12982.20 rlu
same,Percent of Luminescence Remaining,"[2]; LucPpe2m146, 0.5%, 123 min (times of Table I r48)",96.5%
same,Average Relative Light Units,"[2]; LucPpe2m146, 0.5%, 180 min (head r48)",14348.90 rlu
same,Percent of Luminescence Remaining,"[2]; LucPpe2m146, 0.5%, 180 min (times of Table I r48)",106.7%
same,Average Relative Light Units,"[2]; LucPpe2m146, 0.5%, 238 min (head r48)",13958.2 rlu
same,Percent of Luminescence Remaining,"[2]; LucPpe2m146, 0.5%, 238 min (times of Table I r48)",103.8%
same,Average Relative Light Units,"[2]; LucPpe2m146, 1.0%, 0.75 min (head r48)",16897.5 rlu
same,Percent of Luminescence Remaining,"[2]; LucPpe2m146, 1.0%, 0.75 min (times of Table I r48)",100.00%
same,Average Relative Light Units,"[2]; LucPpe2m146, 1.0%, 30 min (head r48)",16754.97 rlu
same,Percent of Luminescence Remaining,"[2]; LucPpe2m146, 1.0%, 30 min (times of Table I r48)",102.0%
same,Average Relative Light Units,"[2]; LucPpe2m146, 1.0%, 66 min (head r48)",7036.0 rlu
same,Percent of Luminescence Remaining,"[2]; LucPpe2m146, 1.0%, 66 min (times of Table I r48)",106.0%
same,Average Relative Light Units,"[2]; LucPpe2m146, 1.0%, 123 min (head r48)",6653.67 rlu
same,Percent of Luminescence Remaining,"[2]; LucPpe2m146, 1.0%, 123 min (times of Table I r48)",100.3%
same,Average Relative Light Units,"[2]; LucPpe2m146, 1.0%, 180 min (head r48)",7358.44 rlu
same,Percent of Luminescence Remaining,"[2]; LucPpe2m146, 1.0%, 180 min (times of Table I r48)",110.9%
same,Average Relative Light Units,"[2]; LucPpe2m146, 1.0%, 238 min (head r48)",6948.05 rlu
same,Percent of Luminescence Remaining,"[2]; LucPpe2m146, 1.0%, 238 min (times of Table I r48)",104.7%
